The test system of series [1] is Cyperus rotundus. The series is described as follows: Herbicidal activity against Cyperus rotundus assessed as total dry weight at 7 kg/ha applied as spray before seed sowing (reference value: 4.1 MT/ha). Format: functional.
The subject of series [2] is Malva sylvestris. Briefly: Herbicidal activity against Malva sylvestris assessed as total fresh weight at 7 kg/ha applied as spray before seed sowing (reference value: 23.6 MT/ha). Format: functional.
In series [3] the test system is Allium cepa. Briefly: Phytotoxicity in Allium cepa (onion) seedling assessed as total fresh weight at 7 kg/ha applied as spray before seed sowing (reference value: 7.71 MT/ha). The settings on record: in vivo, other. It counts as organism-based.
For series [4], the system named is Cyperus rotundus. The series is described as follows: Herbicidal activity against Cyperus rotundus assessed as total fresh weight at 7 kg/ha applied as spray before seed sowing (reference value: 23.6 MT/ha). It counts as functional.
Series [5] relates to Chenopodiastrum murale. The series is described as follows: Herbicidal activity against Chenopodium murale assessed as total fresh weight at 7 kg/ha applied as spray before seed sowing (reference value: 23.6 MT/ha). It counts as functional.
Series [6] concerns Malva sylvestris. The series is described as follows: Herbicidal activity against Malva sylvestris assessed as total dry weight at 7 kg/ha applied as spray before seed sowing (reference value: 4.1 MT/ha). It counts as functional.
Series [7] concerns Chenopodiastrum murale. The series is described as follows: Herbicidal activity against Chenopodium murale assessed as total dry weight at 7 kg/ha applied as spray before seed sowing (reference value: 4.1 MT/ha). Format: functional.
For series [8], the system named is Allium cepa. Briefly: Phytotoxicity in Allium cepa (onion) seedling assessed as total fresh weight at 3.75 kg/ha applied as spray before seed sowing (reference value: 7.71 MT/ha). It counts as organism-based. To be noted: in vivo, other.
For series [9], the system named is Cyperus rotundus. The series is described as follows: Herbicidal activity against Cyperus rotundus assessed as total dry weight at 3.75 kg/ha applied as spray before seed sowing (reference value: 4.1 MT/ha). It counts as functional.
Series [10] concerns Chenopodiastrum murale. The series is described as follows: Herbicidal activity against Chenopodium murale assessed as total fresh weight at 3.75 kg/ha applied as spray before seed sowing (reference value: 23.6 MT/ha). It counts as functional.
Series [11] concerns Cyperus rotundus. The series is described as follows: Herbicidal activity against Cyperus rotundus assessed as total fresh weight at 3.75 kg/ha applied as spray before seed sowing (reference value: 23.6 MT/ha). Format: functional.
For series [12], the system named is Malva sylvestris. The series is described as follows: Herbicidal activity against Malva sylvestris assessed as total dry weight at 3.75 kg/ha applied as spray before seed sowing (reference value: 4.1 MT/ha). It counts as functional.
The test system of series [13] is Malva sylvestris. Briefly: Herbicidal activity against Malva sylvestris assessed as total fresh weight at 3.75 kg/ha applied as spray before seed sowing (reference value: 23.6 MT/ha). It counts as functional.
The subject of series [14] is Chenopodiastrum murale. The series is described as follows: Herbicidal activity against Chenopodium murale assessed as total dry weight at 3.75 kg/ha applied as spray before seed sowing (reference value: 4.1 MT/ha). It counts as functional.
Series [15] relates to Cyperus rotundus. Briefly: Herbicidal activity against Cyperus rotundus assessed as total dry weight at 2.45 kg/ha applied as spray before seed sowing (reference value: 4.1 MT/ha). It counts as functional.
For series [16], the system named is Chenopodiastrum murale. The series is described as follows: Herbicidal activity against Chenopodium murale assessed as total fresh weight at 2.45 kg/ha applied as spray before seed sowing (reference value: 23.6 MT/ha). It counts as functional.
The test system of series [17] is Cyperus rotundus. Briefly: Herbicidal activity against Cyperus rotundus assessed as total fresh weight at 2.45 kg/ha applied as spray before seed sowing (reference value: 23.6 MT/ha). It counts as functional.
For series [18], the system named is Allium cepa. Briefly: Phytotoxicity in Allium cepa (onion) seedling assessed as total fresh weight at 2.45 kg/ha applied as spray before seed sowing (reference value: 7.71 MT/ha). Format: organism-based. To be noted: in vivo, other.
Series [19] relates to Malva sylvestris. The series is described as follows: Herbicidal activity against Malva sylvestris assessed as total dry weight at 2.45 kg/ha applied as spray before seed sowing (reference value: 4.1 MT/ha). Format: functional.
For series [20], the system named is Malva sylvestris. Briefly: Herbicidal activity against Malva sylvestris assessed as total fresh weight at 2.45 kg/ha applied as spray before seed sowing (reference value: 23.6 MT/ha). It counts as functional.
The test system of series [21] is Chenopodiastrum murale. Briefly: Herbicidal activity against Chenopodium murale assessed as total dry weight at 2.45 kg/ha applied as spray before seed sowing (reference value: 4.1 MT/ha). It counts as functional.
Series [22] has as its system Cyperus rotundus. The series is described as follows: Herbicidal activity against Cyperus rotundus assessed as total dry weight at 0.35 kg/ha applied as spray before seed sowing (reference value: 4.1 MT/ha). Format: functional.
Series [23] deals with Chenopodiastrum murale. The series is described as follows: Herbicidal activity against Chenopodium murale assessed as total dry weight at 0.35 kg/ha applied as spray before seed sowing (reference value: 4.1 MT/ha). It counts as functional.
For series [24], the system named is Chenopodiastrum murale. Briefly: Herbicidal activity against Chenopodium murale assessed as total fresh weight at 0.35 kg/ha applied as spray before seed sowing (reference value: 23.6 MT/ha). It counts as functional.
Series [25] concerns Allium cepa. Briefly: Phytotoxicity in Allium cepa (onion) seedling assessed as total fresh weight at 0.35 kg/ha applied as spray before seed sowing (reference value: 7.71 MT/ha). Format: organism-based. To be noted: in vivo, other.
The subject of series [26] is Malva sylvestris. The series is described as follows: Herbicidal activity against Malva sylvestris assessed as total dry weight at 0.35 kg/ha applied as spray before seed sowing (reference value: 4.1 MT/ha). Format: functional.
The subject of series [27] is Malva sylvestris. Briefly: Herbicidal activity against Malva sylvestris assessed as total fresh weight at 0.35 kg/ha applied as spray before seed sowing (reference value: 23.6 MT/ha). Format: functional.
The subject of series [28] is Cyperus rotundus. Briefly: Herbicidal activity against Cyperus rotundus assessed as total fresh weight at 0.35 kg/ha applied as spray before seed sowing (reference value: 23.6 MT/ha). It counts as functional.
Series [29] relates to Malva sylvestris. Briefly: Herbicidal activity against Malva sylvestris assessed as total fresh weight at 0.75 kg/ha applied as spray during post-emergence (reference value: 23.6 MT/ha). Format: functional.
Series [30] deals with Malva sylvestris. The series is described as follows: Herbicidal activity against Malva sylvestris assessed as total dry weight at 0.75 kg/ha applied as spray before seed sowing (reference value: 4.1 MT/ha). Format: functional.
Series [31] relates to Chenopodiastrum murale. The series is described as follows: Herbicidal activity against Chenopodium murale assessed as total dry weight at 0.75 kg/ha applied as spray before seed sowing (reference value: 4.1 MT/ha). Format: functional.
In series [32] the test system is Cyperus rotundus. Briefly: Herbicidal activity against Cyperus rotundus assessed as total fresh weight at 0.75 kg/ha applied as spray before seed sowing (reference value: 23.6 MT/ha). It counts as functional.
For series [33], the system named is Cyperus rotundus. The series is described as follows: Herbicidal activity against Cyperus rotundus assessed as decrease in total dry weight at 0.75 kg/ha applied as spray during post-emergence relative to weed-infested control. It counts as functional. More on the design: scale not given: the % may be the effect or the level left.
For series [34], the system named is Chenopodiastrum murale. Briefly: Herbicidal activity against Chenopodium murale assessed as total fresh weight at 0.75 kg/ha applied as spray during postemergence (reference value: 23.6 MT/ha). Format: functional.
For series [35], the system named is Cyperus rotundus. Briefly: Herbicidal activity against Cyperus rotundus assessed as total fresh weight at 0.75 kg/ha applied as spray during post-emergence (reference value: 23.6 MT/ha). Format: functional.
Series [36] relates to Cyperus rotundus. Briefly: Herbicidal activity against Cyperus rotundus assessed as total dry weight at 0.75 kg/ha applied as spray before seed sowing (reference value: 4.1 MT/ha). It counts as functional.
The test system of series [37] is Malva sylvestris. Briefly: Herbicidal activity against Malva sylvestris assessed as decrease in total dry weight at 0.75 kg/ha applied as spray during post-emergence relative to weed-infested control. More on the design: scale not given: the % may be the effect or the level left. Format: functional.
Series [38] relates to Malva sylvestris. Briefly: Herbicidal activity against Malva sylvestris assessed as total fresh weight at 0.75 kg/ha applied as spray before seed sowing (reference value: 23.6 MT/ha). Format: functional.
In series [39] the test system is Allium cepa. Briefly: Phytotoxicity in Allium cepa (onion) seedling assessed as total fresh weight at 0.75 kg/ha applied as spray during post-emergence (reference value: 7.71 MT/ha). Format: organism-based. The settings on record: in vivo, other.
For series [40], the system named is Chenopodiastrum murale. The series is described as follows: Herbicidal activity against Chenopodium murale assessed as total fresh weight at 0.75 kg/ha applied as spray before seed sowing (reference value: 23.6 MT/ha). Format: functional.
The subject of series [41] is Chenopodiastrum murale. Briefly: Herbicidal activity against Chenopodium murale assessed as decrease in total dry weight at 0.75 kg/ha applied as spray during postemergence relative to weed-infested control. It counts as functional. More on the design: scale not given: the % may be the effect or the level left.
In series [42] the test system is Allium cepa. The series is described as follows: Phytotoxicity in Allium cepa (onion) seedling assessed as total fresh weight at 0.75 kg/ha applied as spray before seed sowing (reference value: 7.71 MT/ha). It counts as organism-based. To be noted: in vivo, other.

Turning to `COC(=O)c1c(Cl)c(Cl)c(C(=O)OC)c(Cl)c1Cl` [DACTHAL], the Activity is 3.63 MT/ha in the series with Cyperus rotundus [1]; 19 MT/ha in the series with Malva sylvestris [2]; 8.2 MT/ha in the series with Allium cepa [3]; 19 MT/ha in the series with Cyperus rotundus [4]; 19 MT/ha in the series on Chenopodiastrum murale [5]; 3.63 MT/ha in the series on Malva sylvestris [6]. The Activity with Chenopodiastrum murale [7] is on record as 3.63 MT/ha.

On to `CN(C)C(=O)C(c1ccccc1)c1ccccc1` [DIPHENAMIDE], for which the Activity is listed as 5.16 MT/ha with Allium cepa [8]; 4.79 MT/ha in the series with Cyperus rotundus [9]; 21.5 MT/ha in the series on Chenopodiastrum murale [10]; 21.5 MT/ha in the series with Cyperus rotundus [11]; 4.79 MT/ha in the series on Malva sylvestris [12]; 21.5 MT/ha in the series on Malva sylvestris [13]. In the series on Chenopodiastrum murale [14], the Activity worked out at 4.79 MT/ha.

For `CNC(=O)N(C)c1nc2ccccc2s1` [METHABENZTHIAZURON], the Activity was found to be 2.85 MT/ha in the series with Cyperus rotundus [15]; 9 MT/ha in the series with Chenopodiastrum murale [16]; 9 MT/ha in the series on Cyperus rotundus [17]; 7.18 MT/ha in the series with Allium cepa [18]; 2.85 MT/ha with Malva sylvestris [19]; 9 MT/ha in the series with Malva sylvestris [20]. The Activity in the series with Chenopodiastrum murale [21] came to 2.85 MT/ha.

Turning to `CSc1nnc(C(C)(C)C)c(=O)n1N` [METRIBUZIN], the Activity in the series with Cyperus rotundus [22] was found to be 3.32 MT/ha; in the series with Chenopodiastrum murale [23] it was 3.32 MT/ha; in the series on Chenopodiastrum murale [24], 17.1 MT/ha; in the series on Allium cepa [25], 7.64 MT/ha; with Malva sylvestris [26], 3.32 MT/ha; in the series on Malva sylvestris [27], 17.1 MT/ha. In addition, the Activity with Cyperus rotundus [28] turned out to be 17.1 MT/ha.

Consider `CC(C)Oc1cc(-n2nc(C(C)(C)C)oc2=O)c(Cl)cc1Cl` [OXADIAZON], for which the Activity in the series on Malva sylvestris [29] is on record as 10.8 MT/ha; with Malva sylvestris [30], 2.37 MT/ha; with Chenopodiastrum murale [31], 2.37 MT/ha; in the series on Cyperus rotundus [32], 13.3 MT/ha; in the series with Cyperus rotundus [33], 57%; in the series on Chenopodiastrum murale [34], 10.8 MT/ha. For the same molecule, the Activity in the series with Cyperus rotundus [35] came to 10.8 MT/ha; with Cyperus rotundus [36], 2.37 MT/ha; in the series with Malva sylvestris [37], 57%; with Malva sylvestris [38], 13.3 MT/ha; with Allium cepa [39], 15.69 MT/ha; with Chenopodiastrum murale [40], 13.3 MT/ha. For the same molecule, the Activity came out at 57% with Chenopodiastrum murale [41] and 13.37 MT/ha with Allium cepa [42].

The values are drawn from ChEMBL document CHEMBL3045187, “Chemical weed control in seedbed sown onion (Allium cepa L.)” (Crop Prot, 2006).
